Experimental data published in patent publication US10154991B2, “Anesthetic compounds and related methods of use” (priority 2012, dated 2018).

Assays:
ICR mice = assay: In vivo sedative/hypnotic testing, IV bolus, mice; design: species or system mouse; conditions: mice
Description: Animals were housed in a dedicated room at the vivarium of VivoPath Inc., located at Redstone Center, 55 Union Street, Worcester, Mass. Housing and care was as specified in the USDA Animal Welfare Act (9 CFR, Parts 1, 2, and 3) and as described in the Guide for the Care and Use of Laboratory Animals from the National Research Council. Environmental conditions of housing rooms are set at the following ranges: temperature: 70±7° F. (22±4° C.), humidity: 50±20%, light cycle: 12-hour light/12-hour dark cycle—lights on at 7 am and off at 7 pm., air changes: ten or more air changes per hour with 100% fresh air. The animals' body weights were measured prior to the first dose on each experimental day.
Adult ICR mice (20-30 g) were purchased from Harlan (South Easton, Mass.). Drugs were administered as intravenous bolus injection in a tail vein.
Drugs were prepared in either dimethylsulfoxide/saline or saline vehicle or hydroxypropyl-β-cyclodextrin (20% in water, pH 7.0) solution and were administered as an intravenous bolus injection. Animals received 1-4 doses of drug(s) during an experimental day, either ascending doses or different drugs. Doses were administered at intervals equal to the longer of 1 h or 10-times the duration of apparent sedative/hypnotic effects from the previous dose. The sedative/hypnotic properties of the drugs were evaluated by observation of the rats, ranging from mild excitation, mild sedation apparent due to reduced activity, and moderate sedation to hypnosis reflected by loss of righting reflex (LORR, the ability to place rear and hind legs under the body, as well as attenuation/loss of nociceptive reflexes).

[1] = target: T1, human α1(L264T), β2 and γ2L subunits of the GABAA receptor (Homo sapiens, UniProt P14867+P47870, L291T); assay: GABAA receptor current in Xenopus oocytes, 2-electrode voltage clamp; assay type: cell-based
T1 construct: expressed in transfected cells; host or cells: Xenopus oocytes
T1 sequence (P14867 28-456 L291T): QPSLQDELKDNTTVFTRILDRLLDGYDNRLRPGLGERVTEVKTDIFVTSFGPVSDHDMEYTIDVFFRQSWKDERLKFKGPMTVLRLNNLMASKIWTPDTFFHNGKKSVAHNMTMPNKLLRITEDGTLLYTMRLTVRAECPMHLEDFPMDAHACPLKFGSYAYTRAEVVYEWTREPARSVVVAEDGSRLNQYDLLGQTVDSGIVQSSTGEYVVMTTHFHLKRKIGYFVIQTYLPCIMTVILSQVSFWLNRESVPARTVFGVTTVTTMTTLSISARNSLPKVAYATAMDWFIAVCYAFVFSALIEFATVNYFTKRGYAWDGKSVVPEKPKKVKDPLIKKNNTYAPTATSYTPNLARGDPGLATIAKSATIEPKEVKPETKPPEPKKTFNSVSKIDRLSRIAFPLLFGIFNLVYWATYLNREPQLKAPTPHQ
T1 sequence (P47870 25-512 limits assumed): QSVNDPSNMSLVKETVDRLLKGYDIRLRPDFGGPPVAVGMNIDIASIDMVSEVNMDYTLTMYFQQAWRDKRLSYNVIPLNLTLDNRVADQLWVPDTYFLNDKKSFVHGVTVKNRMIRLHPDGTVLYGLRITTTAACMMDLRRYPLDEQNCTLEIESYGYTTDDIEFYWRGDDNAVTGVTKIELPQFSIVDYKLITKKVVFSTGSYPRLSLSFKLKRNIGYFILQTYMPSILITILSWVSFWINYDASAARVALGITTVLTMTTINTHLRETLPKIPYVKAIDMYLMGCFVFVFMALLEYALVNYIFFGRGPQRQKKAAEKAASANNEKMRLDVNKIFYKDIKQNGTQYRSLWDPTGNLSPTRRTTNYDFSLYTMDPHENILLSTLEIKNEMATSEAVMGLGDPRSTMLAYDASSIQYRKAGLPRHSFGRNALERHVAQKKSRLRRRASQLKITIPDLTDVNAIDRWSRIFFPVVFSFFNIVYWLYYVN
T1 sequence (P18507 40-475 partner): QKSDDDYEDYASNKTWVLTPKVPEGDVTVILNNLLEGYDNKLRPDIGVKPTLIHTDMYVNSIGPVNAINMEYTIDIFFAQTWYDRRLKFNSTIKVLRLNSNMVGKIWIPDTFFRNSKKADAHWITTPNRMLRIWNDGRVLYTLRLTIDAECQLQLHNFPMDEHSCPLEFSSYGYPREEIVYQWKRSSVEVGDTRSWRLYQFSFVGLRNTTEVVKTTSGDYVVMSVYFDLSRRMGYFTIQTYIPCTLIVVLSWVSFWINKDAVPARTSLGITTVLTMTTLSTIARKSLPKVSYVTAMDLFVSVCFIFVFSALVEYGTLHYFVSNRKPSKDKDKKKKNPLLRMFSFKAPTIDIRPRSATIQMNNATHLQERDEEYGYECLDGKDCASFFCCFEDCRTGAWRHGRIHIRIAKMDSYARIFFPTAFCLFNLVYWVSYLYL
Description: Cyclopropyl-MOC-metomidate induces anesthesia by acting as a positive allosteric modulator of the γ-aminobutyric acid (GABA) type A (GABAA) receptor. Cyclopropyl-MOC-metomidate and its principle metabolite, CPM-acid, were evaluated for their ability to potentiate activation of GABAA receptor current in Xenopus oocytes expressing the human α1(L264T), β2 and γ2L subunits of the GABAA receptor using established methods (Ge et al., 2011). The […] mutant was used rather than wild-type GABAA receptor because it is directly activated by anesthetics, allowing a simpler assessment of the drug potency without the need for concomitant activation by GABA. Anesthetic potency on this mutated GABAA receptor is similar to that on wild-type receptors. Currents were recorded using conventional 2-electrode voltage clamp technique at a holding potential of −50 mV. Oocytes were placed in a 0.04-mL recording chamber and constantly perfused at a rate of 4-6 mL/min. The current response to ABP-700 or CPM-acid was normalized to that produced by 100 μM GABA in the same oocyte and data presented as mean±SD from 3-6 oocytes.

rats = assay: Anesthesia (LORR) in rats by IV bolus and continuous infusion; assay type: in vivo, rat
Description: Rats were monitored for anesthesia as assessed by loss of righting reflex (LORR) and the subsequent time to recovery from LORR. Bolus doses of 1.0 mg/kg and greater induced dose-dependent anesthesia. The minimum effective bolus anesthetic dose in rats was approximately 1 mg/kg based on LORR observations. Time to recovery from LORR was dose-dependent.
Cyclopropyl-MOC-metomidate anesthesia in rats by continuous infusion without a bolus induction dose was examined in this study. An infusion of […] induced anesthesia after approximately 3 minutes as measured by LORR. Recovery of righting reflex took approximately 4 minutes following infusion discontinuation whether the infusion was conducted for 5 or 120 minutes.
Cyclopropyl-MOC-metomidate continuous infusion studies were conducted to determine the minimum effective infusion dose required to induce anesthesia. […] When stable anesthesia was observed after 30 minutes of infusion, the infusion rate was reduced to 0.8 mg/kg/min and then to 0.6 mg/kg/min and 0.4 mg/kg/min at 30-minute intervals. Anesthesia and LORR was maintained in all rats at 0.6 mg/kg/min. […] In one rat, the infusion at 0.4 mg/kg/min was discontinued after 7 minutes due to inadequate the anesthesia. The other two rats received the full 30-minute infusion at […] with no further change. Rats recovered from LORR and resumed normal behavior within 2-6 minutes of stopping the infusion. Based on these observations, the minimum effective infusion dose rate required to maintain anesthesia was determined to be approximately 0.5 mg/kg/min. An independent assessment of “minimal immobilizing infusion rate” of cyclopropyl-MOC-metomidate in rats yielded a value of 0.89±0.18 mg/kg/min.

beagle dogs = test system: beagle dogs
Description: A pilot study was conducted in dogs to assess anesthesia induced by cyclopropyl-MOC-metomidate continuous infusion without a bolus induction dosing. Two dogs received cyclopropyl-MOC-metomidate as a 1 mg/kg/min IV infusion without prior bolus administration.
Anesthesia induction was determined using the methods described above.
Etomidate was administered to dogs at IV bolus doses ranging from 0.25 to 2 mg/kg. Anesthesia in the dogs was measured as described above. […] The bolus dose of 2 mg/kg was adopted to induce anesthesia prior to subsequent continuous infusions.
Propofol was administered to dogs as an IV bolus dose of 5 mg/kg to induce anesthesia followed by a continuous infusion at 0.4 mg/kg/min.

[2] = test system: adrenal cortisol production
Description: Dexamethasone (0.01 mg/kg) was administered two hours before the first administration of ACTH and re-administered every 2 hours to maintain suppression. Dexamethasone pretreatment suppresses the hypothalamo-hypophyseal axis to prevent endogenous ACTH release and subsequent adrenocortical steroid secretion. […] Synthetic ACTH (Synacthen, 250 μg) was then administered at times after test substance administration to evaluate the effects of the test substance on the release of the adrenal steroid, cortisol.
All study methods described for Study 1 were repeated, except the ACTH administration at the end of infusion was omitted.

[3] = in vivo
[4] = test system: 68 receptors, ion channels and transporters; assay: radioligand binding screen; conditions: 10 μM, each radioligand
GABAA receptor channel = assay: radioligand binding to the GABAA receptor channel; conditions: 10 μM
[5] = dogs, 4 mg/kg bolus or bolus plus 0.5 mg/kg/min for 30 or 120 minutes

## COC(=O)C1(OC(=O)c2cncn2[C@H](C)c2ccccc2)CC1 [Cyclopropyl- methoxycarbonyl metomidate, cyclopropyl-methoxycarbonyl metomidate]
ICR mice
  slope of duration of LORR vs logarithm of dose: approximately 7
[1]
  EC50: 5.8 ± 1.1 µM
  concentration having minimal effects on current: ~0.3 µM
rats
  minimum effective infusion dose rate to maintain anesthesia: approximately 0.5 mg/kg/min
rats; 4 mg/kg bolus then 1 to 0.4 mg/kg/min step-down infusion
  recovery from LORR and normal behavior after stopping the infusion: 2 to 6 min
rats; IV bolus, LORR
  minimum effective bolus anesthetic dose: approximately 1 mg/kg
rats; bolus dose of 4 mg/kg
  duration of anesthesia and LORR: 3 to 8 min
rats; independent assessment
  minimal immobilizing infusion rate: 0.89 ± 0.18 mg/kg/min
rats; infusion for 5 or 120 minutes
  recovery of righting reflex after infusion discontinuation: approximately 4 minutes
rats; infusion of 4 mg/kg without bolus
  time to induction of anesthesia (LORR): approximately 3 minutes
Beagle dogs; dogs
  minimum effective continuous infusion dose rate (infusion MED): approximately 0.5 mg/kg/min
Beagle dogs; [5]
  emergence from anesthesia: approximately 5 minutes
  recovery of apparently normal behavior: 10 to 12 min
Beagle dogs; dogs, IV bolus
  minimally effective anesthetic dose (MED): approximately 1 mg/kg
Beagle dogs; dogs, bolus dose of 3 or 4 mg/kg
  duration of anesthesia: 3 to 6 min
Beagle dogs; dogs, bolus vs 30- or 120-minute infusion
  context dependence of recovery from anesthesia: context-independent
Beagle dogs; two dogs, 1 mg/kg/min IV infusion without bolus
  anesthesia onset after initiation of infusion: 2.5 to 4.0 min
[2]; Study 1, dogs, after 120-minute infusion
  ACTH-induced plasma cortisol response: cortisol response to the first ACTH stimulus was inhibited, but the response to the second and third ACTH stimuli at 90 and 180 minute post-infusion were robust
[2]; dogs
  return of normal adrenal responsiveness after cessation of infusion: 1.5 to 3 h
[3]
  plasma concentrations associated with anesthesia: 200 to 3000 nM
[4]
  inhibition of radioligand binding: no more than 25%
GABAA receptor channel
  effect on binding of [3H]-flunitrazepam: no effect
  effect on binding of [3H]-muscimol: no effect
